From ChEMBL document CHEMBL2169784, “Discovery and development of spleen tyrosine kinase (SYK) inhibitors” (J Med Chem, 2012)

What was measured:
[1] = Cmax in rat at 10 mg/kg, po after 2 hrs administered as single dose; assay type: ADME, organism-based; parameters: dose 10 mg/kg, route oral; details: in vivo
[2] = Half life in rat at 10 mg/kg, po administered as single dose; assay type: ADME, organism-based; parameters: dose 10 mg/kg, route oral; details: in vivo

COc1ccc(-c2cc3nccn3c(Nc3ncccc3C(N)=O)n2)cc1OC
Cmax [1]: 167 ng/mL
half-life [2]: 1.78 h
